Test results from patent US20010046509A1, “Use of cinnamic acid or of its derivatives in a cosmetic firming composition” (priority 1997, published 2001).

System: normal human dermal fibroblast cultures
Experiment: Effect on collagen synthesis: incorporation of radioactive proline into fibroblast cultures
Format: cell-based
Conditions: for tritiated proline incorporated, cpm (counts per minute): untreated cells 19261 cpm; for tritiated proline incorporation, % relative to untreated cells: untreated cells = 100
Description: The study is carried out by measuring the incorporation of radioactive proline into normal human dermal fibroblast cultures. The fibroblast cultures are prepared according to the standard methods of cell culturing, i.e. in MEM/M199 medium sold by the company Gibco, in the presence of sodium bicarbonate (1.87 mg/ml), L-glutamine (2 mM), penicillin (50 IU/ml) and 10% foetal calf serum (Gibco). The test is carried out on cell cultures at 80% confluence on 24-well plates. Cinnamic acid, at a concentration of 10^−4M is placed in contact with the cells for 48 hours. Labelling with tritiated proline (L-[2,3-^3H]-proline sold by Amersham, 33 μCi/ml) is carried out for 24 hours. The level of tritiated proline incorporated is measured at the end of the test by acidic precipitation of the proteins on filters and counting by liquid scintillation. The results are assessed relative to a control consisting of cells which have not been treated with cinnamic acid. A positive control (20 μg/ml of vitamin C), which is known to stimulate collagen synthesis, and a negative control (10^−6M retinoic acid), which is known to inhibit collagen synthesis, are introduced into the test by way of reference.

[1] = cinnamic acid 10^-4 M, 48 hours contact, 24 hours labelling
[2] = negative control, 10^-6 M retinoic acid
[3] = positive control, 20 μg/ml of vitamin C

With `O=C(O)C=Cc1ccccc1` [Cinnamic acid] the “incorporation of proline into collagen (collagen neosynthesis), result in words” value (cinnamic acid 10^-4 M, 48 hours) was “significantly stimulates the incorporation of proline into collagen”, the “tritiated proline incorporated, cpm (counts per minute)” value [1] was 26209 cpm and the “tritiated proline incorporation, % relative to untreated cells” value [1] was 136%.
With `CC1=C(/C=C/C(C)=C/C=C/C(C)=C/C(=O)O)C(C)(C)CCC1` [Retinoic acid, retinoic acid] the “tritiated proline incorporated, cpm (counts per minute)” value [2] was 13160 cpm and the “tritiated proline incorporation, % relative to untreated cells” value [2] was 68%.
In the case of `O=C1O[C@H]([C@@H](O)CO)C(O)=C1O` [Vitamin C, vitamin C], the “tritiated proline incorporated, cpm (counts per minute)” value [3] is reported as 40344 cpm and the “tritiated proline incorporation, % relative to untreated cells” value [3] is reported as 209%.
